Source: patent US20260294933A1, “USE OF COMPOUND IN PREVENTION OR TREATMENT OF RADIATION-INDUCED BRAIN INJURY” (GUANGZHOU CELLPROTEK PHARMACEUTICAL CO., LTD, priority 2023, published 2026)
Entries after “also recorded” stand apart in the source; their conditions may differ.

Assays:
[1] = tested on: gamma knife irradiation induced focal radiation-induced brain injury (brain lesions); test: Brain lesion volume by MRI, gamma knife irradiation induced focal radiation-induced brain injury in C57BL/6 mice; type: in vivo
Protocol: (§1) The coordinates of the irradiation center positioning point were: 2 mm behind the anterior fontanelle (AP), 2 mm left of the midline (L), and 2 mm below the skull dura mater (dorsal ventral DV).
Quantitative Analysis of Brain Lesion Volume Using Magnetic Resonance imaging (MRI)
Prior to detection, each mouse was injected with 200 μl of contrast agent solution at a concentration of approximately 48 mg/ml.

GFAP positive astrocytes = test: GFAP immunofluorescence staining, activation of astrocytes in the thalamus of the lesion; type: in vivo, C57BL/6 mice
Excerpt: FIG. 3: YC-6 inhibited the activation of astrocytes after radiation-induced brain injury. Pannel A: GFAP immunofluorescence staining in the thalamus of the brain lesion, with a white ruler indicating […]. Pannel B: Counting GFAP positive cells in Pannel A, i.e., randomly selecting three fields of view in the brain slice injury lesion area and using Image J software to count GFAP positive cells in the selected fields as the number of GFAP positive cells per unit area, and taking the average value. **** represents P<0.0001, n=5.
as §1
(§2) Immunofluorescence Staining of GFAP, CC1, and MAG Proteins in Brain Slices

[2] = tested on: CC1 positive oligodendrocytes; test: CC1 immunofluorescence staining, mature oligodendrocytes in the thalamus of the lesion; type: in vivo, C57BL/6 mice
Excerpt: (§3) Pannel A: Immunofluorescence staining of CC1 and MAG in the thalamus of the brain lesion, with a white ruler indicating […]. Pannel B: Counting CC1 positive cells in Pannel A, i.e., randomly selecting three fields of view in the brain slice injury lesion area and using Image J software to count CC1 positive cells in the selected fields as the number of CC1 positive cells per unit area, and taking the average value. Pannel C: Statistical analysis of MAG immunofluorescence intensity in Pannel A, i.e., randomly selecting three fields of view in the brain slice injury lesion area and using Image J software to quantify the fluorescence signal intensity of MAG in the selected fields as the fluorescence intensity of MAG per unit pixel area, and taking the average value. **** represents P<0.0001, n=5.
as §1, §2

MAG = MAG immunofluorescence intensity in the thalamus of the lesion; type: in vivo, C57BL/6 mice
Excerpt: as §3, §1, §2

[3] = tested on: radiation-induced brain injury; conditions: patients treated with bevacizumab; cited from earlier work
[4] = tested on: blood-brain barrier and microvessels; conditions: animals; cited from earlier work
[5] = YC-6 administration for 8 weeks

## C[C@@]12CCCC1C1C[C@@H](O)[C@@]3(O)C[C@@H](O)CC[C@]3(C)C1CC2 (stereo partly drawn) [YC-6, 5α-androst-3β,5,6β-triol]
[1]; 60 mg/kg/d for 2 weeks, followed by discontinuation until week 8
  volume of brain lesions (in words): significantly reduced the volume of brain lesions; also recorded: significantly reducing lesion volume
[1]; full 8-week administration, compared to 2-week administration
  volume of brain lesions (in words): showed a trend towards further reducing the volume of brain lesions; also recorded: showed a better trend in reducing lesion volume compared to short-term administration
GFAP positive astrocytes; 60 mg/kg/d for 8 weeks, 8 weeks after gamma knife radiation, Mean ± SEM, n=5, P < 0.0001 vs RBI + Saline (558.20 ± 10.07), Control + Saline 57.80 ± 2.69
  Number of astrocytes (GFAP positive): 357.00 ± 10.61 Astrocytes/mm^2
GFAP positive astrocytes; [5]
  activation of astrocytes (in words): significantly inhibited the activation of astrocytes
[2]; 60 mg/kg/d for 8 weeks, 8 weeks after gamma knife radiation, Mean ± SEM, n=5, P < 0.0001 vs RBI + Saline (200.60 ± 21.47), Control + Saline 1608.00 ± 47.92
  Number of mature oligodendrocytes (CC1 positive): 506.40 ± 30.48 Oligodendrocytes/mm^2
[2]; [5]
  reduction of oligodendrocytes (in words): significantly inhibited the reduction of oligodendrocytes
MAG; 60 mg/kg/d for 8 weeks, 8 weeks after gamma knife radiation, Mean ± SEM, n=5, P < 0.0001 vs RBI + Saline (0.31 ± 0.018), Control + Saline 1.04 ± 0.047
  MAG fluorescence signal intensity: 0.44 ± 0.018
MAG; [5]
  MAG level (in words): restored MAG level

## bevacizumab: bevacizumab, used in a randomized double-blind placebo-controlled study in 2011
[3]
  neurological function: significant improvement in neurological function
  reduction in brain injury lesions: varying degrees of reduction in brain injury lesions

B1: mouse nerve growth factor for injection: mouse nerve growth factor for injection (protein, UniProt P01139 122-241, looked up)
Beta-nerve growth factor: SSTHPVFHMGEFSVCDSVSVWVGDKTTATDIKGKEVTVLAEVNINNSVFRQYFFETKCRASNPVESGCRGIDSKHWNSYCTTTHTFVKALTTDEKQAAWRFIRIDTACVCVLSRKATRRG
[4]
  damage to the blood-brain barrier and repair of microvessels: can alleviate damage to the blood-brain barrier and repair microvessels in animals
